Results from PubChem BioAssay AID624129 (Sanford-Burnham Center for Chemical Genomics, 2012).
Activity calls are given as the source filed them. How the calls were made is not given here.

Target: C-X-C chemokine receptor type 6 (Homo sapiens) (UniProt O00574)
Test: CXCR6 receptor antagonists, dose response, cell-based, beta-arrestin, DiscoveRx, APJ panel, uHTS hits (AID 624129)
Settings: CXCR6 beta-arrestin (DiscoveRx) antagonist cell assay; for outcome: CXCR6, dose range 1
[1] = CXCR6, dose range 1, mean IC50 across replicates
[2] = CXCR6, run 2, dose range 1, at 79 µM (top of the series)

Chain of C-X-C chemokine receptor type 6 (Homo sapiens) (O00574 whole entry, looked up): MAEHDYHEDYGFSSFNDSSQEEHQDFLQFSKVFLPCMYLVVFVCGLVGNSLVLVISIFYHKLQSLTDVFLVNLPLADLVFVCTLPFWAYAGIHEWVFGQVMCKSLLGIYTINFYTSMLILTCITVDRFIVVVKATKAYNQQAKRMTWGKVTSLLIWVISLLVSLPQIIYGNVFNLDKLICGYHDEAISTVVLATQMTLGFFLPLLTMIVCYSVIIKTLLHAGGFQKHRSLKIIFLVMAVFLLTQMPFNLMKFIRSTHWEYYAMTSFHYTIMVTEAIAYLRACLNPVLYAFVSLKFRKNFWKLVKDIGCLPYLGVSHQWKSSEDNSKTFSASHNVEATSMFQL

SMILES	outcome	IC50 [1] [µM]	IC50 (CXCR6, run 1, dose range 2) [µM]	inhibition [2] [%]	IC50 (CXCR6, run 2, dose range 2) [µM]	inhibition (CXCR6, run 2, dose range 1, at 39.5 µM (top of the series)) [%]
CN(C)CCCN(C(=O)CCS(=O)(=O)c1ccccc1)c1nc2cc3c(cc2s1)OCO3	inactive	14.9	14.3	110	15.5	–
Cc1ccc(NC(=S)NNc2ccc(C(=O)O)cc2[N+](=O)[O-])cc1C	inactive	48.9	48.9	62	> 79	–
CN(CC(=O)Nc1cc(S(=O)(=O)N2CCCC2)ccc1Cl)Cc1cccs1	inactive	11.5	11.4	78.8	11.6	–
Cc1ccc(NS(=O)(=O)c2cc([N+](=O)[O-])ccc2NNC(=S)Nc2cc(C)ccc2C)c(C)c1	inactive	33	21.2	114	44.8	–
COC(=O)C1=C(C(=O)OC)C2OC1c1cc3ccccc3cc12	inactive	14.5	12.3	112	16.7	–
COc1cc(C2C(C#N)=C(N)Oc3n[nH]c(-c4cccs4)c32)cc(OC)c1O (stereo not given)	inactive	47.3	36.1	70.9	58.4	–
CCC(C)c1ccc(O)c(NC(=S)NC(=O)c2cccs2)c1 (stereo not given)	inactive	11.8	15.4	82.8	8.27	–
CC(Oc1ccccc1)C(=O)Nc1nc(-c2ccccn2)cs1 (stereo not given)	inactive	14.3	11.4	97.6	17.3	–
N#C/C(=C/c1ccc(-c2ccc([N+](=O)[O-])cc2)o1)C(=O)Nc1nc(-c2cccs2)cs1	inactive	38.1	44.7	90.2	31.5	–
O=C(C#Cc1ccccc1)c1ccccc1	inactive	11.3	10.9	113	11.6	–
C=C1C(=O)[C@]23C[C@H]1CCC2[C@@]1(C)C(C[C@@H]3O)[C@](C)(C(=O)OC)CC[C@@H]1O (stereo not given in full)	inactive	11.5	11.6	109	11.4	–
CCCC(=O)OCCNc1cc(SCCC(=O)OC)c2nonc2c1[N+](=O)[O-]	inactive	22	23.6	108	20.3	–
O=[N+]([O-])c1cc(-c2ncccn2)c([N+](=O)[O-])s1	inactive	24	23.8	111	24.3	–
CCOC(=O)c1cc([N+](=O)[O-])c([N+](=O)[O-])cc1NC(C)=O	inactive	15.1	14.8	110	15.5	–
CC(=O)NS(=O)(=O)c1ccc(Nc2ccc([N+](=O)[O-])c3nonc23)cc1	inactive	46.6	35.6	85.9	57.6	–
O=[N+]([O-])c1ccc(Sc2nc3ccccc3o2)c([N+](=O)[O-])c1	inactive	45.1	70.5	82.2	19.7	–
CCOc1cc(/C=C2\N=C(SC)SC2=O)cc([N+](=O)[O-])c1OC(C)=O	inactive	28.3	27.7	98.2	28.8	–
Cc1ccc(S(=O)(=O)c2ccc([N+](=O)[O-])cn2)cc1	inactive	11.7	11.5	109	11.9	–
O=C(C#Cc1cccc([N+](=O)[O-])c1)c1ccccc1	inactive	13.5	12.6	108	14.4	–

The next lines start with the values.

outcome	IC50 [1] [µM]	IC50 (CXCR6, run 1, dose range 2) [µM]	inhibition [2] [%]	IC50 (CXCR6, run 2, dose range 2) [µM]	inhibition (CXCR6, run 2, dose range 1, at 39.5 µM (top of the series)) [%]	SMILES
inactive	16.9	15.7	109	18	–	Cc1cccc(CS(=O)(=O)c2ncc(Cl)c(C(=O)NCc3ccc4c(c3)OCO4)n2)c1
inactive	66.9	66.8	76.2	67	–	Cc1ccc(-n2c(SCCN)nnc2-c2cccc(C)c2)cc1
inactive	13.3	12.4	113	14.2	–	CS(=O)(=O)c1ncc(Cl)c(C(=O)Nc2ccc(OC(F)F)cc2)n1
inactive	28.4	24.7	70.2	32	–	O=C(NC(=S)Nc1ccccc1O)c1cncc(Br)c1
inactive	28.4	33.1	71.1	23.8	–	COc1ccc(-c2c(C(=O)c3ccccc3)[nH]c(N)c2C(=O)c2ccccc2)cc1OC
inactive	30.2	30.4	86.8	29.9	–	O=C(NNc1ccc([N+](=O)[O-])cc1[N+](=O)[O-])c1ccco1
inactive	12	10.5	78.1	13.5	–	N=C1SCC(=O)N1c1ncc(Cc2ccccc2Cl)s1
inactive	13.1	12.4	–	13.8	74.7	CCN(CC(=O)NC(C)(C)C)Cc1nc2c(Br)cc(Br)cc2c(=O)[nH]1
inactive	17.8	17.1	88.3	18.6	–	COC(=O)c1ccccc1-c1c2ccc(=N)cc-2oc2cc(N)ccc12
inactive	18.2	17.8	112	18.7	–	CC[N+]1(C)CCC(O)(/C=C/c2ccccc2)C(C(=O)/C=C/c2ccccc2)C1 (stereo not given)
inactive	30.7	23.3	84.1	38.2	–	COc1cc(/C=C(\C#N)c2nc(-c3cc4ccccc4oc3=O)cs2)ccc1O
inactive	12.6	11.7	65.4	13.4	–	C=CCN(CC=C)C(=S)NC(=O)c1ccc(C)c(Br)c1
inactive	11.2	11.3	60.7	11	–	Cn1c(=O)n(C)c2cc([N+](=O)[O-])c(N3CCN(C(=O)c4cccc(Cl)c4)CC3)cc21
inactive	14.2	10.3	72.3	18.1	–	Cc1ccc(OCC(=O)NNC(=S)NC(=O)C2CC2)c(C)c1
inactive	43.1	19.5	111	66.8	–	COC(=O)c1ccc(CCc2cc(O)c(Br)cc2O)cc1
inactive	24	26.3	70.4	21.6	–	CCOC(=O)C1=C(C)NC2=C(C(=O)CC(c3cccs3)C2)C1c1cccs1 (stereo not given)
inactive	14	14.3	111	13.8	–	CN(C)CC1CC/C(=C\c2ccc(O)cc2)C1=O (stereo not given)
